From patent US20170050966A1, “INHIBITING THE TRANSIENT RECEPTOR POTENTIAL A1 ION CHANNEL” (HYDRA BIOSCIENCES, INC., priority 2014, published 2017)
Values after ≈ are worked out from the molar mass of the structure shown. Like-named read-outs stand apart in the source and are kept apart here.

Legend:
[1] = test system: CFA-induced cold hyperalgesia model in the rat; test: CFA-induced cold hypersensitivity, paw withdrawal latency; assay type: in vivo; conditions: for Pre-Rx PWL / Pre-RX PWL: before dosing
Protocol: Embodiments of the invention may be efficacious in the treatment of inflammatory pain. Compound 2 tested by the CFA-induced pain test method. […]
Briefly, the hind paw is sensitized to cold temperature (allodynic), by administering 0.1 mL of Complete Freund's Adjuvant (CFA) is administered to the right hind paw. Three days later, the time taken for the animal to lift its CFA-injected paw is recorded compared to its un-injected normal left hind paw. […] To avoid tissue damage the maximum cut-off time is 5 minutes. Animals that are allodynic (average PWL to the first three pain behaviors <150 seconds for the CFA-injected hind paw: ˜≧50% difference between the normal and CFA-injected paw) are included in the study and subsequently randomized across treatment groups. The following day, the animals are dosed under blinded conditions. Following the 1-2 hour pre-treatment time, the post-dose PWL readings are again taken. The efficacy of the drug treatment is assessed by comparing the PWL in the drug treatment animals to those animals that receive the vehicle.
Compound 4 was also tested using the methods disclosed.
In a further study, compounds of the invention were tested for efficacy at low doses for the treatment of inflammatory pain. Using the methods disclosed in above, Compound 2 was dosed at ranges of 0.1 to 1 mg/kg PO. The positive comparator TRPA1 antagonist Compound A was also tested at a dose of 150 mg/kg IP. […] Oral drug delivery was accomplished using a 20-gauge 1½″ oral gavage needle and a 5 cc syringe. Fed rats received a single oral gavage of Compound 2 at 0.03, 0.1, 0.3, or 1 mg/kg or Vehicle, 2 hours prior to testing

[2] = Metabolic stability in liver microsomes; assay type: in vitro ADME
Protocol: Metabolic stability of the compounds of Formula (I) was determined by standard liver microsome assays. Briefly, metabolic stability was tested by adding the compound to be tested dissolved in DMSO to human, dog, or rat liver microsomes. Assays were run with a starting concentration of 1 μM test compound. The reaction was initiated by addition of nicotinamide adenine dinucleotide phosphate[…] (NADPH) regeneration components at 37° C., at which time an aliquot was immediately quenched in an ice-cold acetonitrile/methanol/water solution. Reaction mixture was incubated at 37° C. on a shaker, and additional aliquots were taken at 7, 15, 30 and 60 minutes. Following quench and centrifugation, samples were analyzed on HPLC/MS/MS.

[3] = target: CYP2D6 (Homo sapiens, UniProt P10635); test: P450 Cyp-inhibition luminescent assay; assay type: biochemical
Protocol: (§1) The ability of Compound 2 to inhibit human CYP450 enzymes was evaluated. Compound 1 and Compound 2 were tested in standard P450 Cyp-inhibition luminescent assay.

[4] = target: CYP2C9 (Homo sapiens, UniProt P11712); test: P450 Cyp-inhibition luminescent assay; assay type: biochemical
Protocol: as §1

[5] = target: CYP3A4 (Homo sapiens, UniProt P08684); test: P450 Cyp-inhibition luminescent assay; assay type: biochemical
Protocol: as §1

[6] = target: T1, CYP1A2 (Homo sapiens, UniProt P05177); test: P450 Cyp-inhibition luminescent assay; assay type: biochemical
T1 sequence (P05177 1-516): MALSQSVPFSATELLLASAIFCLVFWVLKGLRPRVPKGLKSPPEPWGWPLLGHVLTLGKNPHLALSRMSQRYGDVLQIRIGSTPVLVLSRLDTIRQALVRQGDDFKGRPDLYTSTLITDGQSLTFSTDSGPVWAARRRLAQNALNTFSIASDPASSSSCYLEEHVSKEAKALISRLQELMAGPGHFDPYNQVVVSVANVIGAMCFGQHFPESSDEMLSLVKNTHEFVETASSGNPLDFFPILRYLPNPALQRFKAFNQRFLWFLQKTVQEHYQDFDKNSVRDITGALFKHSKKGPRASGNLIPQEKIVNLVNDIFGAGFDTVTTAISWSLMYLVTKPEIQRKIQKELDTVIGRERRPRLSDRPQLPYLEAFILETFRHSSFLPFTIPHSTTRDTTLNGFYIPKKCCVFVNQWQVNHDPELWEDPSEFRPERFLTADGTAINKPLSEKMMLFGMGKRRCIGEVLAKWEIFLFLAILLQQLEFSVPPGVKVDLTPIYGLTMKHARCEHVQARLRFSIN
Protocol: as §1

[7] = target: CYP2C19 (Homo sapiens, UniProt P33261); test: P450 Cyp-inhibition luminescent assay; assay type: biochemical
Protocol: as §1

[8] = Kinetic solubility in buffered solutions; assay type: physicochemical; conditions: aqueous buffer, kinetic from dmso stock, 24 hours ambient
Protocol: The solubilities of the compounds of Formula (I) were tested using the procedure outlined in Kerns, E. H., J Pharm Sci (2001) 90:1838-1858, incorporated herein by reference and described below. Data for solubility was obtained by this method for compounds of Formula (I) and included in Table 3. The chromatographic data was performed by HPLC using an Xbridge Shield RP18 column with the following column dimensions: 4.6×30 mm, 3.5 μm. The mobile phase consisted of deionized water (MPA) with trifluoroacetic acid added in at 0.1% (v/v) (MPC) and HPLC-grade acetonitrile (MPB). The mobile phase flow rate was 2.5 mL/min with the column and sampling operating at ambient temperature. UV detection was set to 280 nm.
Samples for analysis of the compounds of Formula (I) were prepared at a % v/v=1/19 (i.e., 10 μL of the stock solution into 190 μL of buffer) by spiking stock solutions of the compounds of Formula (I) into buffered solutions. Three buffered solution systems were prepared: pH 4.0 prepared from 50 mM sodium acetate in a 5% dextrose in water solution, pH 7.4 prepared from 75 mM sodium phosphate in a 1:1 ratio of sterilized water for injection to a 5% dextrose in water solution, and pH 9.0 prepared from 50 mM sodium bicarbonate in a 1:2 ratio of sterilized water for injection to a 5% dextrose in water solution. The samples were incubated on a microplate shaker at 300 rpm for 24 hours at ambient temperature. Following incubation, the samples were centrifuged for five minutes at 13 k rpm at ambient temperature. The resulting supernantant was extracted for HPLC analysis.

[9] = 1 mg/kg PO, suspension in 0.5% methylcellulose
[10] = rat liver microsomes, both sexes, read-out: Half-Life Both sexes
[11] = dog liver microsomes, female, read-out: Female Half-Life
[12] = rat liver microsomes, male, read-out: Male Half-Life
[13] = sodium acetate buffer, pH 4.0, 50 mM sodium acetate, read-out: pH 4.0 solubility
[14] = sodium bicarbonate buffer, pH 9.0, 50 mM sodium bicarbonate, read-out: pH 9.0 solubility
[15] = sodium phosphate buffer, pH 7.4, 75 mM sodium phosphate, read-out: pH 7.4 solubility

CYP2C19, sequence (P33261 whole entry): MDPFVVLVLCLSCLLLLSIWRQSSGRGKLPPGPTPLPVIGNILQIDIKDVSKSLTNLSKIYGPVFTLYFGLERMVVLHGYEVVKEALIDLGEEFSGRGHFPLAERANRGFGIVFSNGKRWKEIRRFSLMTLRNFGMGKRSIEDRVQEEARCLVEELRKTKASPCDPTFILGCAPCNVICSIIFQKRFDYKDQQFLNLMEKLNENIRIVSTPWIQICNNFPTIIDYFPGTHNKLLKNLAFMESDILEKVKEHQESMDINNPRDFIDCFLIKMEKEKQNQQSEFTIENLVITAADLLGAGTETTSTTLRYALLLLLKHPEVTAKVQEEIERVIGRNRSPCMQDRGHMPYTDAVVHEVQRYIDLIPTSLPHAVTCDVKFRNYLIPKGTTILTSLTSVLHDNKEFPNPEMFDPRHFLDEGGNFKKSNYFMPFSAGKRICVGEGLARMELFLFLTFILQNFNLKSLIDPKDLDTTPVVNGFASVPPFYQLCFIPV
CYP2D6, sequence (P10635 whole entry): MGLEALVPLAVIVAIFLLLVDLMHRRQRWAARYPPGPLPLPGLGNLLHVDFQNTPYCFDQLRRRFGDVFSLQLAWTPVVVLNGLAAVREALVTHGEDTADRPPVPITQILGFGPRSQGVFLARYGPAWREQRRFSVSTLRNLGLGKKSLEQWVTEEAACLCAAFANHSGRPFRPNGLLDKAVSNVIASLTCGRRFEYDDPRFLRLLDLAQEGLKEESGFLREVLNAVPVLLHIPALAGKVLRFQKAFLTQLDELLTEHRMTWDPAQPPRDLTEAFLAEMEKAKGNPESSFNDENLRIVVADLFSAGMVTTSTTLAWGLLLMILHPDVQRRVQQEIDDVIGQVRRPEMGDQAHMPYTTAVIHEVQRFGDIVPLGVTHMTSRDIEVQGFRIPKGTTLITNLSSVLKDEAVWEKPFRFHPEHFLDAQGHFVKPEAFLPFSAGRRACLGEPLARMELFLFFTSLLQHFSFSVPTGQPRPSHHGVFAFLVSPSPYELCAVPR
CYP2C9, sequence (P11712 whole entry): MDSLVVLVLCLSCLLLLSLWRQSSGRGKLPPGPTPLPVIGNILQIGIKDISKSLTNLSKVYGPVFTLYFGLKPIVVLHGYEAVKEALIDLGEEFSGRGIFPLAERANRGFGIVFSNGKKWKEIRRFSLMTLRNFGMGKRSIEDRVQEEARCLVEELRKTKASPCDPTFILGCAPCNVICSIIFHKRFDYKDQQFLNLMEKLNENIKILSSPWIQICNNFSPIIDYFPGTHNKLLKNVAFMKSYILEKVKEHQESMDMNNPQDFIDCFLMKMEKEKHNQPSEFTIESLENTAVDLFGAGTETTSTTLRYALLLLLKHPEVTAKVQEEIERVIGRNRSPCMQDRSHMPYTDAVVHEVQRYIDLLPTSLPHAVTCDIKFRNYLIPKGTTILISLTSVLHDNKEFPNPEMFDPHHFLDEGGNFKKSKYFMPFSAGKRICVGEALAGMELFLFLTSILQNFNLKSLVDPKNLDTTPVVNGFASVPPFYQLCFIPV
CYP3A4, sequence (P08684 whole entry): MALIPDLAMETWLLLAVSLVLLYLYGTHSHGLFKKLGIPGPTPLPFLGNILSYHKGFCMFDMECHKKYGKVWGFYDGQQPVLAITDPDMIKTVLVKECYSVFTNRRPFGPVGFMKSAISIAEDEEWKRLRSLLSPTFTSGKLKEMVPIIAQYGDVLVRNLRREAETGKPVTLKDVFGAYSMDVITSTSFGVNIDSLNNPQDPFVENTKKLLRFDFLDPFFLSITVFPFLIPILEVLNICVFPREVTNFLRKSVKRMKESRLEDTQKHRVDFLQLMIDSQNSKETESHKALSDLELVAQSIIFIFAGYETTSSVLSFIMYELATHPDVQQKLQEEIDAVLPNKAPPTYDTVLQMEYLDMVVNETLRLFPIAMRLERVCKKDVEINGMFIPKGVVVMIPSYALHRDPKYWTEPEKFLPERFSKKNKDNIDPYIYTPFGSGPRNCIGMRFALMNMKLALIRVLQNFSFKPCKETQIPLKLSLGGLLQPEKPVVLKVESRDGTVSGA

SMILES: C[C@@H](C(=O)Nc1ccnc(-c2cnc(N3CCC[C@@H]3C(F)(F)F)nc2)n1)n1cnc2c1c(=O)n(C)c(=O)n2C [Compound 4, (S)-2-(1,3-dimethyl-2,6-dioxo-2,3-dihydro-1H-purin-7(6H)-yl)-N-(2′-((R)-2-(trifluoromethyl)pyrrolidin-1-yl)-[2,5′-bipyrimidin]-4-yl)propanamide]
- Pre-Rx PWL ([1]; 1 mg/kg PO group, suspension in 0.5% methylcellulose): 101.7 s
- PWL Change [1, 9]: 148.6 s
- Post-Rx PWL [1, 9]: 250.3 s
- Pre-Rx PWL ([1]; 3 mg/kg PO group, suspension): 101.1 s
- PWL Change ([1]; 3 mg/kg PO, suspension): 140.9 s
- Post-Rx PWL ([1]; 3 mg/kg PO, suspension): 242.1 s
- Pre-Rx PWL ([1]; 10 mg/kg PO group, suspension): 101.5 s
- PWL Change ([1]; 10 mg/kg PO, suspension): 132.6 s
- Post-Rx PWL ([1]; 10 mg/kg PO, suspension): 234.1 s
- half-life at 1 μM [2, 10]: 72.6 min

SMILES: C[C@@H](C(=O)Nc1ccnc(-c2cnc(N3CCCC3(C)C)nc2)n1)n1cnc2c1c(=O)n(C)c(=O)n2C [Compound 1, (S)-2-(1,3-dimethyl-2,6-dioxo-2,3-dihydro-1H-purin-7(6H)-yl)-N-(2′-(2,2-dimethylpyrrolidin-1-yl)-[2,5′-bipyrimidin]-4-yl)propanamide]
- Female Hepatic Clearance ([2]; dog liver microsomes, female): 18 mL/min/kg
- half-life at 1 μM [2, 11]: 18 min
- Male Hepatic Clearance ([2]; dog liver microsomes, male): 22 mL/min/kg
- half-life at 1 μM ([2]; dog liver microsomes, male, read-out: Male Half-Life): 10 min
- half-life at 1 μM [2, 10]: 39.2 min
- Female Hepatic Clearance ([2]; rat liver microsomes, female): 20 mL/min/kg
- half-life at 1 μM ([2]; rat liver microsomes, female, read-out: Female Half-Life): 46 min
- Male Hepatic Clearance ([2]; rat liver microsomes, male): 29 mL/min/kg
- half-life at 1 μM [2, 12]: 22 min
- CYP 2D6: % Inhibition [3]: 9%
- CYP 2C9: % Inhibition [4]: 71.4%
- CYP 3A4: % Inhibition [5]: 26.9%
- CYP 1A2: % Inhibition [6]: 4.2%
- CYP 2C19: % Inhibition [7]: 45.9%
- solubility kinetic at 24 h [8, 13]: 4 µg/mL (≈ 7.93 µM)
- solubility kinetic at 24 h [8, 14]: 2 µg/mL (≈ 3.96 µM)
- solubility kinetic at 24 h [8, 15]: 3 µg/mL (≈ 5.95 µM)

SMILES: C[C@@H](C(=O)Nc1ccnc(-c2cnc(N3CCC[C@H]3C(F)(F)F)nc2)n1)n1cnc2c1c(=O)n(C)c(=O)n2C [Compound 2, (S)-2-(1,3-dimethyl-2,6-dioxo-2,3-dihydro-1H-purin-7(6H)-yl)-N-(2′-((S)-2-(trifluoromethyl)pyrrolidin-1-yl)-[2,5′-bipyrimidin]-4-yl)propanamide]
- reversal of CFA-induced cold hypersensitivity ([1]; 0.03 mg/kg PO): did not exert a statistically significant effect
- PWL Change ([1]; 0.03 mpk PO, 2 hours prior to testing): 14.8 s
- reversal of CFA-induced cold hypersensitivity ([1]; 0.1, 0.3, and 1 mg/kg PO): significant reversal of CFA-induced cold hypersensitivity
- PWL Change ([1]; 0.1 mpk PO, 2 hours prior to testing): 43.1 s
- Post RX PWL ([1]; 0.3 mpk PO): 197.7 s
- Pre-RX PWL ([1]; 0.3 mpk PO group): 104.0 s
- PWL Change ([1]; 0.3 mpk PO, 2 hours prior to testing): 74.1 s
- Post RX PWL ([1]; 1 mpk PO): 243.0 s
- Pre-RX PWL ([1]; 1 mpk PO group): 103.7 s
- PWL Change ([1]; 1 mpk PO, 2 hours prior to testing): 104.8 s
- Post RX PWL ([1]; 3 mpk PO): 249.6 s
- Pre-RX PWL ([1]; 3 mpk PO group): 103.9 s
- Post RX PWL ([1]; 10 mpk PO): 237.3 s
- Pre-RX PWL ([1]; 10 mpk PO group): 104.0 s
- effect on cold hypersensitivity ([1]; oral doses of 0.3 to 10 mg/kg): attenuated cold hypersensitivity
- half-life at 1 μM ([2]; dog liver microsomes, both sexes, read-out: Half-Life both sexes): 22.9 min
- half-life at 1 μM [2, 11]: 22.9 min
- half-life at 1 μM [2, 10]: > 60 min
- Male Hepatic Clearance ([2]; rat liver microsomes, male): 2 mL/min/kg
- half-life at 1 μM [2, 12]: 787 min
- CYP 2D6: % Inhibition [3]: 6.3%
- CYP 2C9: % Inhibition [4]: 39.6%
- CYP 3A4: % Inhibition [5]: 2.7%
- CYP 1A2: % Inhibition [6]: 0.299%
- CYP 2C19: % Inhibition [7]: 29.1%
- solubility kinetic at 24 h [8, 13]: 85 µg/mL (≈ 156 µM)
- solubility kinetic at 24 h [8, 14]: 69 µg/mL (≈ 127 µM)
- solubility kinetic at 24 h [8, 15]: 71 µg/mL (≈ 130 µM)
